US5162304A, “Pharmaceutical compositions and methods for treatment and prophylaxis of cancer” (priority 1990, dated 1992)
Values joined by “and” are separate entries in the source; they are usually repeats but may differ in a detail not shown here. Equal values may be shown once.

Key:
bladder mucous membrane = experiment: Test 10: pathological changes in bladder mucous membrane after BBN and sodium erythorbate; assay type: in vivo, male F344 rats; conditions: 250 mg/kg in feed; for Number of animals with cancer / Number of animals with papilloma / Number of animals with papillary or tuberous hyperplasia: 28 observed; for Number of animals with cancer: unadministered 19 of 27; for Number of animals with papilloma: unadministered 20 of 27; for Number of animals with papillary or tuberous hyperplasia: unadministered 27 of 27; for Cancer, incidence: unadministered 70; for Papilloma, incidence: unadministered 74; for Papillary or tuberous hyperplasia, incidence: unadministered 100
Text: 5 groups of 6-week old male F344 rats were givn 0.05% (by weight. The definition is to be followed hereinafter) aqueous solution of N-butyl-N-(4-hydroxybutyl)nitrosoamine (BBN: bladder carcinogenic compound), as an initiator, by water supplying bottles for 4 weeks.

[1] = tested on: Ehrlich's ascites carcinoma cells; experiment: Test 1: survival of mice inoculated with Ehrlich's ascites carcinoma cells; assay type: in vivo, ddY mice; conditions: i.p., 10 mg/kg/day for 5 days, from 24 hours after inoculation
Method: 5-week old ddY mice were intraperitoneally inoculated with 10^6 Ehrlich's ascites carcinoma cells. Since 24 hours later, 50 mg/ml suspension of a test compound in 0.25% (% by weight. The definition is to be followed hereinafter) solution of Pluronic F68 in physiological saline was intraperitoneally injected to 10 animals/group at a dose of 10 mg/kg/day for 5 days.

stomach carcinoma = experiment: Test 9: stomach carcinoma after MNNG; assay type: in vivo, male Wistar rats; conditions: for Histological classification (per animal) / Borrmann's Classification (per animal): 250 mg/kg feed orally for 126 days after MNNG; for Borrmann's Classification (per animal): gross observation; for Survival time (per animal): 250 mg/kg feed, 337 = day of sacrifice; for Cause of death (per animal): 250 mg/kg feed orally
Method: 40 male Wistar rats (8-9-week old, body weight; 110 g) were given a drinking water containing 167 μg/ml of N-methyl-N'-nitro-N-nitrosoguanidine (MNNG: a carcinogenic compound) and a feed (dry pellets CE-2, produced by CLEA JAPAN) for 210 days.
The rats were allotted to 5 groups and treated as follows since the 211th day.
Administered group A: n=8. The compound A of the present invention (See below. The definition is to be followed hereinafter) was administered orally in an amount of 250 mg/kg feed for 126 consecutive days.
Administered group B: n=8. The compound B of the present invention was administered orally in an amount of 250 mg/kg feed for 126 consecutive days.
Administered group C: n=8. The compound C of the present invention was administered orally in an amount of 250 mg/kg feed for 126 consecutive days.
Administered group D: n=8. The compound D of the present invention was administered orally in an amount of 250 mg/kg feed for 126 consecutive days.
On the 337th day, the survining rats were sacrificed and the stomachs were (1) subjected to Borrmann's classification according to gross observation and (2) histologically observed (haematoxylin-eosin stain or ASAN stain), and then classified as follows.

[2] = Carcinostatic, carcinostasis-reinforcing and carcinogenesis-preventing activities (general statement)
[3] = tested on: human lung carcinoma A549 cells; experiment: Test 3: colony formation of human lung carcinoma A549 cells; assay type: cell-based; conditions: for tumor growth suppressing effect: A549 cells; for activity at 10 µM: Homo sapiens, A549, 6-hour treatment at 10 μM, read-out: colony formation rate
Method: (§1) 14-methyl-1-pentadecanol and 18-methyl-1-nonadecanol were tested for tumor growth suppressing effects on three different tumor cell strains (Ehrlich's mouse ascites carcinoma cells, human lung carcinoma A549 cells and mouse neuroblastoma NAs-1 cells).
These isomonools suppressed the colony formation rate of human lung A549 cells to 2.2×10^-3 and 4.1×10^-3, respectively, by 6-hour treatment at 10 μM.

[4] = tested on: Ehrlich's mouse ascites carcinoma cells; experiment: Test 3: growth of Ehrlich's mouse ascites carcinoma cells; assay type: cell-based; conditions: for tumor growth suppressing effect: Ehrlich's cells; for activity at 10 µM: Mus musculus, Ehrlich, 120 h, 5-day treatment at 10 μM, read-out: growth suppressed to
Method: as §1
These isomonools suppressed the growth of Ehrlich's ascites carcinoma cells to 4.5×10^-3 and 1.5×10^-2, respectively, by 5-day treatment at 10 μM.

[5] = tested on: mouse neuroblastoma NAs-1 cells; experiment: Test 3: growth of mouse neuroblastoma NAs-1 cells; assay type: cell-based; conditions: for tumor growth suppressing effect: NAs-1 cells; for growth suppressed to: treatment conditions not given
Method: as §1
The growth of mouse neuroblastoma NAs-1 cells was suppressed to 7.8×10^-3 and 6.5×10^-3, respectively.

Ehrlich's ascites cells = experiment: Test 6 and Comparing Test 2: uptake of bleomycin into Ehrlich's ascites cells; assay type: cell-based, mouse; conditions: bleomycin 60 μg/ml + isomonool 0.05 μM
Method: The amount of bleomycin taken up into Ehrlich's ascites cells was determined as a function of time in the case where bleomycin (60 μg/ml) was used in combination with 14-methyl-1-pentadecanol (0.05 μM).

[6] = tested on: Ehrlich's mouse ascites carcinoma cells; experiment: Test 7 and Comparing Tests 3 and 4: survival of mice inoculated with Ehrlich's mouse ascites carcinoma cells; assay type: in vivo, male C57BL/6 mice; conditions: bleomycin + isomonool; for Number of surviving mice: of 8
Method: 5-week old male C57BL/6 mice were intraperitoneally inoculated with 10^6 Ehrlich's mouse ascites carcinoma cells. Since 24 hours later, a 50 μg/ml solution of bleomycin in 0.25% HCO-60 solution in physiological saline, and a suspension containing 50 μg/ml of bleomycin and 5 μg/ml of 14-methyl-1-pentadecanol were intraperitoneally injected at a dose of 10 mg/kg·day and 11 mg/kg·day, respectively, to each 8 animals/group for 5 days. The survival time of the injected mice was then followed.

mammary cancer = experiment: Test 8: prevention of DMBA-induced mammary cancer; assay type: in vivo, female SD rats; conditions: DMBA 5 mg/body, 20 weeks, unadministered 15/30
Method: 6-week old female SD rats (n=90) were treated as follows using 14-methyl-1-pentadecanol as a carcinogenesis-preventing agent.
Unadministered group: n=30. MF powder feed (ORIENTAL KOBO K.K.) was given as a basic feed.
Administered group A: n=30. A test feed was given continually (for 7 days). The feed was prepared by admixing the said carcinogenesis-preventing agent (after emulsified in Pluronic F-68) with the abovementioned basic feed in an amount of 50 mg/kg.
Administered group B: n=30. A test feed was given continually (for 7 days). The feed was prepared by admixing the said carcinogenesis-preventing agent (after emulsified in Pluronic F-68) with the abovementioned basic feed in an amount of 250 mg/kg.
After the aforementioned treatment, 5 mg/body of […] (DMBA: a carcinogenic compound) was administered by injecting subcutaneously in mammary gland 0.1 ml/body of a 50 mg/ml benzanthracene solution. Then, each of the aforementioned groups was given corresponding feed for 20 weeks.
After the completion of the treatment, the rats were sacrificed and observed for the occurrence of mammary cancer.

adenocarcinoma 755 cells = experiment: Test 2: tumor growth suppression in mice inoculated with adenocarcinoma 755 cells; assay type: in vivo, F1 mongrel mice of C57BL/6 and DBA/2; conditions: s.c., 10 mg/kg/day for 5 days; 10 days after inoculation; control 6.5
Text: 6-week old F1 mongrel mice of C57BL/6 and DBA/2 were inoculated under back skin with 10^6 adenocarcinoma 755 cells. […] The animals were sacrificed 10 days after the inoculation with adenocarcinoma 755 cells, and the tumor was excised.

For CCCC(C)CCCCCCCCCCCCCO (centres unmarked) [14-methyl-1-heptadecanol], the “Number of animals with cancer” value (bladder mucous membrane) was 0, the “Number of animals with papilloma” value (bladder mucous membrane) was 0 and the “Number of animals with papillary or tuberous hyperplasia” value (bladder mucous membrane) was 0. For the same compound, the “Cancer, incidence” value (bladder mucous membrane) was 0%, the “Papilloma, incidence” value (bladder mucous membrane) was 0% and the “Papillary or tuberous hyperplasia, incidence” value (bladder mucous membrane) was 0%.

With CCC(C)CCCCCCCCCCCCCO (centres unmarked) [14-methyl-1-hexadecanol] the “mean survival time after inoculation” value [1] was 57.5 days, the “Histological classification (per animal)” value (stomach carcinoma) was “I and 0” and the “Borrmann's Classification (per animal)” value (stomach carcinoma) was 0. The “Number of animals with cancer” value (bladder mucous membrane) was 0, the “Number of animals with papilloma” value (bladder mucous membrane) was 0 and the “Number of animals with papillary or tuberous hyperplasia” value (bladder mucous membrane) was 0. For the same compound, the “Cancer, incidence” value (bladder mucous membrane) was 0%, the “Papilloma, incidence” value (bladder mucous membrane) was 0% and the “Papillary or tuberous hyperplasia, incidence” value (bladder mucous membrane) was 0%. For the same compound, the “carcinostatic, carcinostasis-reinforcing and carcinogenesis-preventing activities” value [2] was “especially potent in activities”.

With CC(C)CCCCCCCCCCCCCO [14-methyl-1-pentadecanol] the “mean survival time after inoculation” value [1] was at least 60 days, the “tumor growth suppressing effect” value [3] was “effective” and the activity at 10 µM [3] was 0.22%. For the same compound, the “tumor growth suppressing effect” value [4] was “effective”, the activity at 10 µM [4] was 0.45% and the “tumor growth suppressing effect” value [5] was “effective”. The “growth suppressed to” value [5] was 7.8×10^-3, the Bleomycin uptake (Ehrlich's ascites cells; 30 min) was 0.13 μg/mg Ehrlich's cell and the Bleomycin uptake (Ehrlich's ascites cells; 60 min) was 0.26 μg/mg Ehrlich's cell. For the same compound, the Bleomycin uptake (Ehrlich's ascites cells; 120 min) was 0.39 μg/mg Ehrlich's cell, the Bleomycin uptake (Ehrlich's ascites cells; 180 min) was 0.55 μg/mg Ehrlich's cell and the Bleomycin uptake (Ehrlich's ascites cells; Initial) was 0 μg/mg Ehrlich's cell. For the same compound, the “mean survival time after inoculation” value ([6]; i.p., 11 mg/kg.day for 5 days (Test 7)) was 54.3 days, the “Number of surviving mice” value ([6]; day 14) was 8 and the “Number of surviving mice” value ([6]; day 15) was 8. For the same compound, the “Number of surviving mice” value ([6]; day 16) was 8, the “Number of surviving mice” value ([6]; day 17) was 8 and the “Number of surviving mice” value ([6]; day 18) was 8. For the same compound, the “Number of surviving mice” value ([6]; day 19) was 8, the “Number of surviving mice” value ([6]; day 20) was 8 and the “Number of surviving mice” value ([6]; day 23) was 8. The “Number of surviving mice” value ([6]; day 33) was 8, the “Number of surviving mice” value ([6]; day 41) was 8 and the “Number of surviving mice” value ([6]; day 45) was 6. The “Number of surviving mice” value ([6]; day 52) was 4, the “Number of surviving mice” value ([6]; day 57) was 4 and the “Number of surviving mice” value ([6]; day 60) was 4. The “Number of animals with mammary cancer/Number of tested animals” value (mammary cancer; group A, 50 mg/kg in feed) was 8/30, the “Number of animals with mammary cancer/Number of tested animals” value (mammary cancer; group B, 250 mg/kg in feed) was 4/30 and the “Histological classification (per animal)” value (stomach carcinoma) was “I and 0”. The “Borrmann's Classification (per animal)” value (stomach carcinoma) was 0, the “Survival time (per animal)” value (stomach carcinoma) was 337 days and the “carcinostatic, carcinostasis-reinforcing and carcinogenesis-preventing activities” value [2] was “especially potent in activities”.

With CC(C)CCCCCCCCCCCCCCCO [16-methyl-1-heptadecanol] the mean tumor weight (adenocarcinoma 755 cells) was 1.6 g, the “Cause of death (per animal)” value (stomach carcinoma) was “dead in cage” and the “Histological classification (per animal)” value (stomach carcinoma) was 0 and I-II. The “Borrmann's Classification (per animal)” value (stomach carcinoma) was 0, the “Survival time (per animal)” value (stomach carcinoma) was 305 days and 337 days and the “Number of animals with cancer” value (bladder mucous membrane) was 0. For the same compound, the “Number of animals with papilloma” value (bladder mucous membrane) was 0, the “Number of animals with papillary or tuberous hyperplasia” value (bladder mucous membrane) was 1 and the “Cancer, incidence” value (bladder mucous membrane) was 0%. The “Papilloma, incidence” value (bladder mucous membrane) was 0% and the “Papillary or tuberous hyperplasia, incidence” value (bladder mucous membrane) was 4%.

In the case of CCC(C)CCCCCCCCCCCCCCCO (centres unmarked) [16-methyl-1-octadecanol], the mean tumor weight (adenocarcinoma 755 cells) is reported as 2.3 g, the “Cause of death (per animal)” value (stomach carcinoma) is reported as “dead in cage” and the “Histological classification (per animal)” value (stomach carcinoma) is reported as “I and 0 and I-II”. The “Borrmann's Classification (per animal)” value (stomach carcinoma) was 0 and the “Survival time (per animal)” value (stomach carcinoma) was 301 days and 312 days and 337 days.

In the case of CC(C)CCCCCCCCCCCCCCCCCO [18-methyl-1-nonadecanol], the “tumor growth suppressing effect” value [3] is reported as “effective”, the activity at 10 µM [3] is reported as 0.41% and the “tumor growth suppressing effect” value [4] is reported as “effective”. The activity at 10 µM [4] was 1.5%, the “tumor growth suppressing effect” value [5] was “effective” and the “growth suppressed to” value [5] was 6.5×10^-3. For the same compound, the “Number of animals with cancer” value (bladder mucous membrane) was 0, the “Number of animals with papilloma” value (bladder mucous membrane) was 0 and the “Number of animals with papillary or tuberous hyperplasia” value (bladder mucous membrane) was 2. The “Cancer, incidence” value (bladder mucous membrane) was 0%, the “Papilloma, incidence” value (bladder mucous membrane) was 0% and the “Papillary or tuberous hyperplasia, incidence” value (bladder mucous membrane) was 7%.
